Patent publication US4091006A, “Esters of 3-hydroxyindone compounds” (priority 1975, dated 1978)

Experiments:
[1] = tested on: egg of the two-spotted mite; assay: Mite Ovicide Test; assay type: in vivo, Tetranychus urticae (Koch); set-up: key to Mite Ova rating: 1: no mortality; 3: an approximately 50% mortality; 5: 100% mortality; settings: spray on eggs, 4 days
Excerpt: (§1) The test procedures were as follows:
The plants were allowed to dry thoroughly.
(§2) Compositions were rated on the basis of percent kill with a rating of 1 indicating no mortality; 3 signifying an approximately 50% mortality and 5 indicating 100% mortality at the indicated dosage.

[2] = tested on: Perennial rye grass, crabgrass, red root pigweed, mustard; assay: Preliminary Herbicide Seed Germination Test; settings: each rated 1 (no injury) to 5 (no seedlings emerged)
Excerpt: The thus-prepared stock suspension contained 0.5 percent by weight of compound. The test concentrations employed in the tests described hereinbelow were obtained by diluting the stock suspension with water. The test procedures were as follows:
The following seeds were used in this test:
Crabgrass -- Digitaria san-
Mustard -- Brassica pincea var.
Each of above mixtures is rolled separately in 5 gallon containers for approximately one-half hour on ball mill to insure uniform mixing of seeds and soil. For each compound four 3-inch pots are filled with soil to within 11/2 inches of top of pots. To 2 of these pots are added 70 cc. of Mixture I. To the remaining 2 pots are added 70 cc. of Mixture II. The seed-soil mixture is tamped firmly, and the pots are removed to the greenhouse and watered lightly. About 2 hours after planting, 25 milliliters of the test formulation were added to each of 2 pots for each soil-seed mixture; i.e., one replicate of each seed mixture per concentration. An equal volume of a water solution containing acetone and an emulsifier in the same concentration as the herbicidal mixture but without the candidate herbicide is also added to each of the soil-seed mixtures. These pots are used as check or control units. The test compounds are formulated by standard procedure of solution in acetone, addition of an emulsifier, and dilution with water. Tests were conducted on all compositions at low concentration (100 ppm.). Certain compositions were also tested at high concentration (1000 ppm). The pots were held in the greenhouse and watered lightly until results were taken. Ten to twelve days after application of chemical, injury is noted for each species by comparing treated vs. untreated pots. Ratings are made at both the high and the low concentrations (1000 ppm and 100 ppm) according to the following designations:
4 = few seedlings emerged and/or very severe stunting
3 = moderate reduction in stand and/or moderate stunting
2 = very slight reduction in stand and/or slight stunting
1 = no injury; seedlings appear no different with respect to stand or growth than untreated controls
Accordingly, the maximum rating for one test seed species tested at both high and low concentration is 10 and the maximum possible total preemergence rating is 40 (10 for each of the four test seed species). […] In some tests the crabgrass experiment was omitted. In these tests the maximum total rating for species tested at both high and low concentrations is 30 and 15 for species tested only at low concentrations.

[3] = tested on: adults and nymphal stages of the two-spotted mite; assay: Mite Foliage Spray Test; assay type: in vivo, Tetranychus urticae (Koch); set-up: key: 1: no mortality; 3: an approximately 50% mortality; 5: 100% mortality; settings: 4 days
Excerpt: as §1, §2

[4] = rating/maximum 20: 100 ppm only, four species
[5] = rating/maximum 40: 100 and 1000 ppm, four species, 10-12 days
[6] = rating/maximum 30: 100 and 1000 ppm, crabgrass omitted

Molecule	Mite Ova rating [1]	Herbicide (total preemergence rating) [2, 4]	Mite Adult rating [3]	Herbicide (total preemergence rating) [2, 5]	Herbicide (total preemergence rating) [2, 6]	Herbicide (total preemergence rating) ([2]; rating/maximum 15: 100 ppm only, crabgrass omitted)
CSCC(=O)OC1=C(c2c(C)cc(C)cc2C)C(=O)c2ccccc21 [2-(2',4',6'-Trimethylphenyl)-3-(methylthioacetoxy)indone]	5 (100% mortality)	19/20	5 (100% mortality)			
Cc1cc(C)c(C2=C(OC(=O)Oc3ccc(Cl)cc3)c3ccccc3C2=O)c(C)c1 [2-(2',4',6'-Trimethylphenyl)-3-(4-chlorophenyloxycarbonyloxy)indone]	5 (100% mortality)	19/20	5 (100% mortality)			
2-(2',6'-Dichlorophenyl)-5(6)-methyl-3-(pivaloyloxy)indone	5 (100% mortality)		5 (100% mortality)	24/40		
CCc1ccccc1C1=C(OC(=O)C(C)(C)C)c2ccccc2C1=O [2-(2'-Ethylphenyl)-3-pivaloyloxyindone]	1	4/20	1			
CCCCC(CC)C(=O)OC1=C(c2cccc3ccccc23)C(=O)c2ccccc21 (stereo not drawn) [3-(2-Ethylhexanoyloxy)-2-(1-Naphthyl)indone]	1	14/20	1			
Cc1cc(C)c(C2=C(OC(=O)NC(C)(C)C)c3ccccc3C2=O)c(C)c1 [2-(2',4',6'-Trimethylphenyl)-3-(N-(t-butyl)carbamoyloxy)indone]	5 (100% mortality)	15/20	5 (100% mortality)			
CCC(CC)C(=O)OC1=C(c2cc(C)ccc2C)C(=O)c2ccccc21 [2-(2',5'-Dimethylphenyl)-3-(2-ethylbutanoyloxy)indone]	5 (100% mortality)	4/20	3 (an approximately 50% mortality)			
Cc1cc(C)c(NC(=O)OC2=C(c3c(C)cc(C)cc3C)C(=O)c3ccccc32)c(C)c1 [2-(2',4',6'-Trimethylphenyl)-3-(N-(2,4,6-Trimethylphenyl)-carbamoyloxy)indone]	5 (100% mortality)	4/20	5 (100% mortality)			
Cc1ccc(C(=O)OC2=C(c3c(C)cc(C)cc3C)C(=O)c3ccccc32)cc1 [3-(4-Methylbenzoyloxy)-2-(2',4',6'-trimethylphenyl)indone]	5 (100% mortality)		5 (100% mortality)		22/30	
CCCCCCCCCCCCCCCC(=O)OC1=C(c2ccccc2C)C(=O)c2ccccc21 [2-(2'-Methylphenyl)-3-(palmitoyloxy)indone]	5 (100% mortality)	4/20	3 (an approximately 50% mortality)			
COc1cc(C)c(C2=C(OC(=O)C(C)(C)C)c3ccccc3C2=O)c(C)c1 [2-(2',6'-Dimethyl-4'-methoxyphenyl)-3-(pivaloyloxy)indone]	3 (an approximately 50% mortality)		3 (an approximately 50% mortality)	24/40		
COc1cc(C)c(C)c(C)c1C1=C(OC(=O)C(C)(C)C)c2ccccc2C1=O [3-(Pivaloyloxy)-2-(6'-methoxy-2',3',4'-trimethylphenyl)indone]	1		1	16/40		
CC(C)c1cccc(C(C)C)c1C1=C(OC(=O)C(C)(C)C)c2ccccc2C1=O [2-(2'6'-diisopropyl)phenyl-3-pivaloyloxyindone]	1		1			3/15
Cc1cc(C)c(C2=C(OC(=O)N(C)C)c3ccccc3C2=O)c(C)c1 [2-(2',4',6'-Trimethylphenyl)-3-(dimethylcarbamoyloxy)indone]	5 (100% mortality)	14/20	3 (an approximately 50% mortality)			
CCCCCCCCOC(=O)OC1=C(c2c(C)cc(C)cc2C)C(=O)c2ccccc21 [2-(2',4',6'-Trimethylphenyl)-3-(octyloxycarbonyloxy)indone]	5 (100% mortality)	16/20	5 (100% mortality)			
O=C1C(c2c(Cl)cccc2Cl)=C(OC(=O)c2c(Cl)cccc2Cl)c2ccccc21 [3-(2,6-Dichlorobenzoyloxy)-2-(2',6'-dichlorophenyl)indone]	1		1	8/40		
O=C(OC1=C(c2c(Cl)cccc2Cl)C(=O)c2ccccc21)c1ccc(Cl)cc1 [3-(4-Chlorobenzoyloxy)-2-(2',6'-dichlorophenyl)indone]	5 (100% mortality)		5 (100% mortality)		23/30	

Molecule	Mite Ova rating [1]	Herbicide (total preemergence rating) [2, 4]	Mite Adult rating [3]	Herbicide (total preemergence rating) [2, 5]	Herbicide (total preemergence rating) [2, 6]	Herbicide (total preemergence rating) ([2]; rating/maximum 15: 100 ppm only, crabgrass omitted)
COc1ccc(C(=O)OC2=C(c3c(C)cc(C)cc3C)C(=O)c3ccccc32)cc1 [3-(4-Methoxybenzoyloxy)-2-(2',4',6'-trimethylphenyl)indone]	5 (100% mortality)		3 (an approximately 50% mortality)		21/30	
Cc1cc(C)c(C2=C(OC(=O)N3CCOCC3)c3ccccc3C2=O)c(C)c1 [2-(2',4',6'-Trimethylphenyl)-3-(4-(morpholino)carbonyloxy)indone]	5 (100% mortality)	4/20	3 (an approximately 50% mortality)			
COc1ccc(C(=O)OC2=C(c3c(Cl)cccc3Cl)C(=O)c3ccccc32)cc1 [3-(4-Methoxybenzoyloxy)-2-(2',6'-dichlorophenyl)indone]	5 (100% mortality)		5 (100% mortality)		22/30	
Cc1cc(C)c(C2=C(OC(=O)N(C)C3CCCCC3)c3ccccc3C2=O)c(C)c1 [2-(2',4',6'-Trimethylphenyl)-3-(N-cyclohexyl-N-methylcarbamoyloxy)indone]	5 (100% mortality)	16/20	5 (100% mortality)			
Cc1cc(C)c(C2=C(OC(=O)c3cccs3)c3ccccc3C2=O)c(C)c1 [2-(2',4',6'-Trimethylphenyl)-3-(2-thenoyloxy)indone]	5 (100% mortality)	18/20	5 (100% mortality)			
CCCCCCCCCCCCC(=O)OC1=C(c2cc(C)ccc2C)C(=O)c2ccccc21 [2-(2',5'-Dimethylphenyl)-3-(tridecanoyloxy)indone]	5 (100% mortality)	4/20	1			
CNC(=O)N(C)C(=O)OC1=C(c2c(C)cc(C)cc2C)C(=O)c2ccccc21 [2-(2',4',6'-Trimethylphenyl)-3-(2,4-dimethylallophanoyloxy)indone]	5 (100% mortality)	16/20	1			
O=C(OC1=C(c2c(Cl)cccc2Cl)C(=O)c2ccccc21)c1ccc(Cl)cc1Cl [3-(2,4-Dichlorobenzoyloxy)-2-(2',6'-dichlorophenyl)indone]	5 (100% mortality)		5 (100% mortality)	28/40		
Cc1cc(C)c(C2=C(OC(=O)c3cc(Cl)cc(Cl)c3)c3ccccc3C2=O)c(C)c1 [3-(3,5-Dichlorobenzoyloxy)-2-(2',4',6'-trimethylphenyl)indone]	5 (100% mortality)		5 (100% mortality)		23/30	
CC(C)(C)C(=O)OC1=C(c2ccccc2)C(=O)c2ccccc21 [2-Phenyl-3-(pivaloyloxy)indone]	1		1	8/40		
O=C(OC1=C(c2ccccc2)C(=O)c2ccccc21)c1ccccc1 [2-Phenyl-3-(benzoyloxy)indone]	1	4/20	1			
Cc1cccc(C(=O)OC2=C(c3c(C)cc(C)cc3C)C(=O)c3ccccc32)c1 [3-(3-Methylbenzoyloxy)-2-(2',4',6'-trimethylphenyl)indone]	5 (100% mortality)		5 (100% mortality)	26/40		
Cc1cccc(C(=O)OC2=C(c3c(Cl)cccc3Cl)C(=O)c3ccccc32)c1 [3-(3-Methylbenzoyloxy)-2-(2',6'-dichlorophenyl)indone]	5 (100% mortality)		5 (100% mortality)	29/40		
CC(=O)OC1=C(c2ccccc2Br)C(=O)c2ccccc21 [3-Acetoxy-2-(2'-bromophenyl)indone]	5 (100% mortality)		5 (100% mortality)	19/40		
CCCCCCCCCCCCCCCC(=O)OC1=C(c2ccc(C(C)C)cc2)C(=O)c2ccccc21 [2-(4'-isopropylphenyl)-3-(palmitoyloxy)indone]	1	4/20	1			
Cc1cc(C)c(C2=C(OC(=O)c3ccco3)c3ccccc3C2=O)c(C)c1 [2-(2',4',6'-Trimethylphenyl)-3-(2-furoyloxy)indone]	5 (100% mortality)	17/20	5 (100% mortality)			
